Reference: ChEMBL document CHEMBL3868595, “Plazomicin is effective in a non-human primate pneumonic plague model” (Bioorg Med Chem, 2016)

Legend:
African green monkey [1] = assay: Toxicity in African green monkey 7972 model infected with Yersinia pestis Colorado 92 assessed as blood urea nitrogen level at 25 mg/kg, iv administered within 6 hrs post onset of sustained fever as 30 mins infusion for 10 days (reference value: 13 mg/dl); format: organism-based; conditions: chlorocebus sabaeus, in vivo
Yersinia pestis [2] = assay: Antibacterial activity against Yersinia pestis Colorado 92 infected in African green monkey B6872 model assessed as bacterial burden in kidney at 25 mg/kg, iv administered within 6 hrs post onset of sustained fever as 30 mins infusion for 5 days (reference value: 7.1 10^7CFU/g); format: functional, organism-based; conditions: CO92
Yersinia pestis [3] = assay: Antibacterial activity against Yersinia pestis Colorado 92 infected in African green monkey B6469 model assessed as bacterial burden in lung at 25 mg/kg, iv administered within 6 hrs post onset of sustained fever as 30 mins infusion for 5 days (reference value: 7.7 10^8CFU/g); format: functional, CO92
African green monkey [4] = assay: Toxicity in African green monkey B6428 model infected with Yersinia pestis Colorado 92 assessed as serum alanine aminotransferase level at 25 mg/kg, iv administered within 6 hrs post onset of sustained fever as 30 mins infusion for 10 days (reference value: 83 IU/L); format: organism-based; conditions: chlorocebus sabaeus, in vivo
African green monkey [5] = assay: Toxicity in African green monkey B6140 model infected with Yersinia pestis Colorado 92 assessed as serum gamma glutamyl-transferase level at 25 mg/kg, iv administered within 6 hrs post onset of sustained fever as 30 mins infusion for 10 days (reference value: 55 IU/L); format: organism-based; conditions: chlorocebus sabaeus, in vivo
African green monkey [6] = assay: Toxicity in African green monkey B6127 model infected with Yersinia pestis Colorado 92 assessed as inappetence at 25 mg/kg, iv administered within 6 hrs post onset of sustained fever as 30 mins infusion for 10 days; format: organism-based; conditions: chlorocebus sabaeus, in vivo
Yersinia pestis [7] = assay: Antibacterial activity against Yersinia pestis Colorado 92 infected in African green monkey B6127 model assessed as bacterial burden in spleen at 25 mg/kg, iv administered within 6 hrs post onset of sustained fever as 30 mins infusion for 10 days (reference value: 1.6 10^9CFU/g); format: functional, organism-based; conditions: CO92
Yersinia pestis [8] = assay: Antibacterial activity against Yersinia pestis Colorado 92 infected in African green monkey B6127 model assessed as bacterial burden in brain at 25 mg/kg, iv administered within 6 hrs post onset of sustained fever as 30 mins infusion for 10 days (reference value: 1.9 10^6CFU/g); format: functional, CO92
Yersinia pestis [9] = assay: Antibacterial activity against Yersinia pestis Colorado 92 infected in African green monkey B6415 model assessed as bacterial burden in lung at 25 mg/kg, iv administered within 6 hrs post onset of sustained fever as 30 mins infusion for 5 days (reference value: 7.7 10^8CFU/g); format: functional, CO92
Yersinia pestis [10] = assay: Antibacterial activity against Yersinia pestis Colorado 92 infected in African green monkey B6889 model assessed as bacterial burden in kidney at 6.25 mg/kg, iv administered within 6 hrs post onset of sustained fever as 30 mins infusion for 5 days (reference value: 7.1 10^7CFU/g); format: functional, CO92
Yersinia pestis [11] = assay: Antibacterial activity against Yersinia pestis Colorado 92 infected in African green monkey B6415 model assessed as bacterial burden in spleen at 25 mg/kg, iv administered within 6 hrs post onset of sustained fever as 30 mins infusion for 5 days (reference value: 1.6 10^9CFU/g); format: functional, CO92
African green monkey [12] = assay: Toxicity in African green monkey B6140 model infected with Yersinia pestis Colorado 92 assessed as blood urea nitrogen level at 25 mg/kg, iv administered within 6 hrs post onset of sustained fever as 30 mins infusion for 10 days (reference value: 24 mg/dl); format: organism-based; conditions: chlorocebus sabaeus, in vivo
African green monkey [13] = assay: Toxicity in African green monkey 7929 model infected with Yersinia pestis Colorado 92 assessed as serum gamma glutamyl-transferase level at 25 mg/kg, iv administered within 6 hrs post onset of sustained fever as 30 mins infusion for 10 days (reference value: 44 IU/L); format: organism-based; conditions: chlorocebus sabaeus, in vivo
Yersinia pestis [14] = assay: Antibacterial activity against Yersinia pestis Colorado 92 infected in African green monkey B6127 model assessed as bacterial burden in lung at 25 mg/kg, iv administered within 6 hrs post onset of sustained fever as 30 mins infusion for 10 days (reference value: 7.7 10^8CFU/g); format: functional, organism-based; conditions: CO92
Yersinia pestis [15] = assay: Antibacterial activity against Yersinia pestis Colorado 92 infected in African green monkey C2083 model assessed as bacterial burden in brain at 12.5 mg/kg, iv administered within 6 hrs post onset of sustained fever as 30 mins infusion for 5 days (reference value: 1.9 10^6CFU/g); format: functional, CO92
Yersinia pestis [16] = assay: Antibacterial activity against Yersinia pestis Colorado 92 infected in African green monkey B6960 model assessed as bacterial burden in spleen at 6.25 mg/kg, iv administered within 6 hrs post onset of sustained fever as 30 mins infusion for 5 days (reference value: 1.6 10^9CFU/g); format: functional, CO92
African green monkey [17] = assay: Toxicity in African green monkey 8067 model infected with Yersinia pestis Colorado 92 assessed as serum alanine aminotransferase level at 25 mg/kg, iv administered within 6 hrs post onset of sustained fever as 30 mins infusion for 10 days (reference value: 45 IU/L); format: organism-based; conditions: chlorocebus sabaeus, in vivo
African green monkey [18] = assay: Toxicity in African green monkey B6291 model infected with Yersinia pestis Colorado 92 assessed as serum creatinine level at 25 mg/kg, iv administered within 6 hrs post onset of sustained fever as 30 mins infusion for 10 days (reference value: 0.6 mg/dl); format: organism-based; conditions: chlorocebus sabaeus, in vivo
Yersinia pestis [19] = assay: Antibacterial activity against Yersinia pestis Colorado 92 infected in African green monkey B6783 model assessed as bacterial burden in kidney at 12.5 mg/kg, iv administered within 6 hrs post onset of sustained fever as 30 mins infusion for 5 days (reference value: 7.1 10^7CFU/g); format: functional, CO92
African green monkey [20] = assay: Toxicity in African green monkey 7653 model infected with Yersinia pestis Colorado 92 assessed as serum gamma glutamyl-transferase level at 25 mg/kg, iv administered within 6 hrs post onset of sustained fever as 30 mins infusion for 10 days (reference value: 37 IU/L); format: organism-based; conditions: chlorocebus sabaeus, in vivo
Yersinia pestis [21] = assay: Antibacterial activity against Yersinia pestis Colorado 92 infected in African green monkey B6872 model assessed as bacterial burden in spleen at 25 mg/kg, iv administered within 6 hrs post onset of sustained fever as 30 mins infusion for 5 days (reference value: 1.6 10^9CFU/g); format: functional, organism-based; conditions: CO92
African green monkey [22] = assay: Toxicity in African green monkey 7929 model infected with Yersinia pestis Colorado 92 assessed as blood urea nitrogen level at 25 mg/kg, iv administered within 6 hrs post onset of sustained fever as 30 mins infusion for 10 days (reference value: 15 mg/dl); format: organism-based; conditions: chlorocebus sabaeus, in vivo
African green monkey [23] = assay: Toxicity in African green monkey B5994 model infected with Yersinia pestis Colorado 92 assessed as blood urea nitrogen level at 25 mg/kg, iv administered within 6 hrs post onset of sustained fever as 30 mins infusion for 10 days (reference value: 15 mg/dl); format: organism-based; conditions: chlorocebus sabaeus, in vivo
Yersinia pestis [24] = assay: Antibacterial activity against Yersinia pestis Colorado 92 infected in African green monkey B6861 model assessed as bacterial burden in kidney at 6.25 mg/kg, iv administered within 6 hrs post onset of sustained fever as 30 mins infusion for 5 days (reference value: 7.1 10^7CFU/g); format: functional, CO92
Yersinia pestis [25] = assay: Antibacterial activity against Yersinia pestis Colorado 92 infected in African green monkey B6861 model assessed as bacterial burden in heart at 6.25 mg/kg, iv administered within 6 hrs post onset of sustained fever as 30 mins infusion for 5 days (reference value: 2.6 10^7CFU/g); format: functional, CO92

Compound: CN[C@@H]1[C@@H](O)[C@@H](O[C@@H]2[C@@H](O)[C@H](O[C@H]3OC(CNCCO)=CC[C@H]3N)[C@@H](N)C[C@H]2NC(=O)[C@@H](O)CCN)OC[C@]1(C)O [PLAZOMICIN]
- Activity (African green monkey [1]): 24 mg/dL
- Activity (Yersinia pestis [2]): Below limit of detection
- Activity (Yersinia pestis [3]): 21 CFU/g
- Activity (African green monkey [4]): 60 IU/L
- Activity (African green monkey [5]): 39 IU/L
- Activity (African green monkey [6]): Toxic
- Activity (Yersinia pestis [7]): Below limit of detection
- Activity (Yersinia pestis [8]): 39 CFU/g
- Activity (Yersinia pestis [9]): 3.2 ×10⁹ CFU/g
- Activity (Yersinia pestis [10]): 1.1 ×10⁶ CFU/g
- Activity (Yersinia pestis [11]): 90 CFU/g
- Activity (African green monkey [12]): 27 mg/dL
- Activity (African green monkey [13]): 16 IU/L
- Activity (Yersinia pestis [14]): Below limit of detection
- Activity (Yersinia pestis [15]): 2.2 ×10⁶ CFU/g
- Activity (Yersinia pestis [16]): 23 CFU/g
- Activity (African green monkey [17]): 50 IU/L
- Activity (African green monkey [18]): 0.5 mg/dL
- Activity (Yersinia pestis [19]): 76 CFU/g
- Activity (African green monkey [20]): 27 IU/L
- Activity (Yersinia pestis [21]): Below limit of detection
- Activity (African green monkey [22]): 17 mg/dL
- Activity (African green monkey [23]): 18 mg/dL
- Activity (Yersinia pestis [24]): 11 CFU/g
- Activity (Yersinia pestis [25]): 16 CFU/g
